Values joined by “and” are separate entries in the source; they are usually repeats but may differ in a detail not shown here. Identical values can stand only once. Inconclusive results and toxic doses are left out. No stated cut-off is given here; in the data, active means T/C of 150% or more; inactive means T/C below 125%.
Test system: L1210 leukemia ip in BDF1 mice, survival T/C
Experiment: NCI In Vivo Anticancer Drug Screen. Data for tumor model L1210 Leukemia (intraperitoneal) in B6D2F1 (BDF1) mice
Details: endpoint: mean survival time, higher = longer survival
How it was run: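 Survival endpoint. Drug-treated group vs vehicle group, expressed as T divided by C. Tumor passaged by transplantation.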

[1] = dose: 100.0 mg/kg/injection, schedule: Q01DX001 (ip), vehicle: carboxymethylcellulose (CMC)
[2] = dose: 200.0 mg/kg/injection, schedule: Q01DX001 (ip), vehicle: carboxymethylcellulose (CMC)
[3] = dose: 400.0 mg/kg/injection, schedule: Q01DX001 (ip), vehicle: carboxymethylcellulose (CMC)
[4] = dose: 50.0 mg/kg/injection, schedule: Q01DX001 (ip), vehicle: Klucel (hydroxypropylcellulose) (HPC)
[5] = dose: 100.0 mg/kg/injection, schedule: Q01DX001 (ip), vehicle: Klucel (hydroxypropylcellulose) (HPC)
[6] = dose: 100.0 mg/kg/injection, schedule: Q01DX001 (ip), vehicle: saline
[7] = dose: 100.0 mg/kg/injection, schedule: Q04DX003 (ip), vehicle: Klucel (hydroxypropylcellulose) (HPC)
[8] = dose: 200.0 mg/kg/injection, schedule: Q01DX001 (ip), vehicle: Klucel (hydroxypropylcellulose) (HPC)
[9] = dose: 200.0 mg/kg/injection, schedule: Q01DX001 (ip), vehicle: saline
[10] = dose: 200.0 mg/kg/injection, schedule: Q04DX003 (ip), vehicle: Klucel (hydroxypropylcellulose) (HPC)
[11] = dose: 400.0 mg/kg/injection, schedule: Q01DX001 (ip), vehicle: saline
[12] = dose: 400.0 mg/kg/injection, schedule: Q04DX003 (ip), vehicle: Klucel (hydroxypropylcellulose) (HPC)
[13] = dose: 100.0 mg/kg/injection, schedule: Q04DX002 (ip), vehicle: saline with Tween-80
[14] = dose: 200.0 mg/kg/injection, schedule: Q04DX002 (ip), vehicle: saline with Tween-80
[15] = dose: 100.0 mg/kg/injection, schedule: Q04DX003 (ip), vehicle: saline with Tween-80
[16] = dose: 100.0 mg/kg/injection, schedule: Q01DX009 (ip), vehicle: Klucel (hydroxypropylcellulose) (HPC)
[17] = dose: 200.0 mg/kg/injection, schedule: Q01DX009 (ip), vehicle: Klucel (hydroxypropylcellulose) (HPC)
[18] = dose: 50.0 mg/kg/injection, schedule: Q04DX003 (ip), vehicle: Klucel (hydroxypropylcellulose) (HPC)
[19] = dose: 100.0 mg/kg/injection, schedule: Q01DX009 (ip), vehicle: saline with Tween-80
[20] = dose: 200.0 mg/kg/injection, schedule: Q01DX009 (ip), vehicle: saline with Tween-80
[21] = dose: 50.0 mg/kg/injection, schedule: Q01DX001 (ip), vehicle: saline

Measured: T/C

CN(C)CCC(O)(c1ccccc1)c1ccccc1Cl (centres undefined)
inactive: [1] 90 % of control | [2] 97 % of control | [3] 94 % of control

CCCCCCCCCCCC(CCCCCCCC)C1CCCCC1 (centres undefined)
inactive: dose: 100.0 mg/kg/injection, schedule: Q01DX001 (ip), vehicle: saline + alcohol 101 % of control | dose: 200.0 mg/kg/injection, schedule: Q01DX001 (ip), vehicle: saline + alcohol 103 % of control | dose: 400.0 mg/kg/injection, schedule: Q01DX001 (ip), vehicle: saline + alcohol 108 % of control

CC(C)C(N)C(=O)O (centres undefined)
inactive: [4] 97 % of control | dose: 75.0 mg/kg/injection, schedule: Q01DX001 (ip), vehicle: acetone 97 % of control | [5] 100 % of control | [1] 96 % of control | [6] 95 % of control | [7] 98 % of control | dose: 150.0 mg/kg/injection, schedule: Q01DX001 (ip), vehicle: acetone 92 % of control | [8] 99 % of control | [2] 96 % of control | [9] 100 % of control | [10] 107 % of control | dose: 300.0 mg/kg/injection, schedule: Q01DX001 (ip), vehicle: acetone 94 % of control | [3] 94 % of control | [11] 92 % of control | [12] 100 % of control

Cc1c([N+](=O)[O-])cc(C(C)(C)C)c(OC(=O)c2ccccc2)c1[N+](=O)[O-]
inactive: [13] 123 % of control | [14] 116 % of control

O=CC(Br)C(Br)c1ccccc1 (centres undefined)
inactive: [15] 98 % of control

O=C(CF)NC1C(O)OC(CO)C(O)C1O (centres undefined)
inactive: [6] 107 % of control | [9] 112 % of control

CNC(=O)Nc1cccc(C(F)(F)F)c1
inactive: [16] 103 % of control | [7] 102 % of control | [17] 100 % of control | [10] 102 % of control | [12] 123 % of control

O=S(CCCl)CCCl
inactive: dose: 0.21 mg/kg/injection, schedule: Q04DX003 (ip), vehicle: Klucel (hydroxypropylcellulose) (HPC) 95 % of control | dose: 0.42 mg/kg/injection, schedule: Q04DX003 (ip), vehicle: Klucel (hydroxypropylcellulose) (HPC) 93 % of control | dose: 0.85 mg/kg/injection, schedule: Q04DX003 (ip), vehicle: Klucel (hydroxypropylcellulose) (HPC) 98 % of control | dose: 0.9 mg/kg/injection, schedule: Q01DX009 (ip), vehicle: Klucel (hydroxypropylcellulose) (HPC) 116 % of control | dose: 1.3 mg/kg/injection, schedule: Q01DX009 (ip), vehicle: Klucel (hydroxypropylcellulose) (HPC) 116 % of control | dose: 2.0 mg/kg/injection, schedule: Q04DX003 (ip), vehicle: Klucel (hydroxypropylcellulose) (HPC) 120 % of control | dose: 2.6 mg/kg/injection, schedule: Q04DX003 (ip), vehicle: Klucel (hydroxypropylcellulose) (HPC) 123 % of control | dose: 6.0 mg/kg/injection, schedule: Q04DX003 (ip), vehicle: Klucel (hydroxypropylcellulose) (HPC) 115 % of control | dose: 8.0 mg/kg/injection, schedule: Q01DX009 (ip), vehicle: Klucel (hydroxypropylcellulose) (HPC) 109 % of control | dose: 8.0 mg/kg/injection, schedule: Q04DX003 (ip), vehicle: Klucel (hydroxypropylcellulose) (HPC) 114 % of control | dose: 12.5 mg/kg/injection, schedule: Q04DX003 (ip), vehicle: Klucel (hydroxypropylcellulose) (HPC) 90 % of control | [18] 89 % of control

CCCCc1c(N)nc(=S)[nH]c1C(=O)O
inactive: dose: 75.0 mg/kg/injection, schedule: Q01DX009 (ip), vehicle: Klucel (hydroxypropylcellulose) (HPC) 98 % of control | [7] 95 % of control | dose: 150.0 mg/kg/injection, schedule: Q01DX009 (ip), vehicle: Klucel (hydroxypropylcellulose) (HPC) 106 % of control | [10] 98 % of control and 91 % of control | dose: 300.0 mg/kg/injection, schedule: Q01DX009 (ip), vehicle: Klucel (hydroxypropylcellulose) (HPC) 108 % of control | [12] 96 % of control

COc1ccc(NC(=O)c2ccccc2Cl)cc1
inactive: [16] 97 % of control | [7] 105 % of control | [17] 95 % of control | [10] 97 % of control | dose: 400.0 mg/kg/injection, schedule: Q01DX009 (ip), vehicle: Klucel (hydroxypropylcellulose) (HPC) 95 % of control | [12] 96 % of control

CCS(=O)(=O)N1CCCCC1C (centres undefined)
inactive: [13] 93 % of control | [14] 99 % of control | dose: 400.0 mg/kg/injection, schedule: Q04DX002 (ip), vehicle: saline with Tween-80 96 % of control

NC(=S)Nc1ccccc1Cl
inactive: [6] 103 % of control | [9] 101 % of control

O=C(Nc1ccccc1)OC1C=CC2CCC1C2 (centres undefined)
inactive: [6] 90 % of control | [9] 87 % of control | [11] 87 % of control

C(=C\c1ccccc1)/Nc1ccccc1
inactive: [7] 97 % of control | [10] 96 % of control | [12] 92 % of control

COc1ccc(/C=C(/C)[N+](=O)[O-])cc1OC
inactive: [4] 98 % of control | dose: 50.0 mg/kg/injection, schedule: Q01DX009 (ip), vehicle: saline with Tween-80 91 % of control | [5] 94 % of control | [6] 93 % of control | [19] 115 % of control | [7] 97 % of control | [8] 103 % of control | [20] 100 % of control | [10] 102 % of control | [11] 98 % of control | [12] 97 % of control

Nc1nc(-c2ccccc2)c(CCCNc2ccc(C(=O)NC(CCC(=O)O)C(=O)O)cc2)c(=O)[nH]1 (centres undefined)
inactive: [21] 98 % of control | [6] 104 % of control | [15] 106 % of control | [9] 98 % of control | dose: 200.0 mg/kg/injection, schedule: Q04DX003 (ip), vehicle: saline with Tween-80 100 % of control | [11] 101 % of control | dose: 400.0 mg/kg/injection, schedule: Q04DX003 (ip), vehicle: saline with Tween-80 89 % of control

CC1(C)N=C(N)N=C(N)N1c1cccc(OCCCOc2ccc(N)cc2)c1
inactive: dose: 5.0 mg/kg/injection, schedule: Q01DX001 (ip), vehicle: saline 97 % of control | dose: 10.0 mg/kg/injection, schedule: Q01DX001 (ip), vehicle: saline 100 % of control | dose: 20.0 mg/kg/injection, schedule: Q01DX001 (ip), vehicle: saline 101 % of control | dose: 40.0 mg/kg/injection, schedule: Q01DX001 (ip), vehicle: saline 100 % of control

CCOC(=O)c1c(O)cc(C)[nH]c1=O
inactive: [21] 102 % of control | [6] 96 % of control | [9] 104 % of control | [11] 104 % of control

O=C(Nc1nccs1)NC1CCCCC1
inactive: dose: 100.0 mg/kg/injection, schedule: Q01DX009 (ip), vehicle: other 100 % of control | dose: 200.0 mg/kg/injection, schedule: Q01DX009 (ip), vehicle: other 96 % of control | dose: 400.0 mg/kg/injection, schedule: Q01DX009 (ip), vehicle: other 93 % of control

ICC1CCC(CI)CC1 (centres undefined)
inactive: [1] 102 % of control | [2] 102 % of control | [3] 102 % of control

CCC(=O)Nc1cccc(OC(=O)NCCCl)c1
inactive: [19] 96 % of control | [20] 87 % of control | dose: 400.0 mg/kg/injection, schedule: Q01DX009 (ip), vehicle: saline with Tween-80 86 % of control

O=C(O)CCC1CC1C(=O)c1ccccc1 (centres undefined)
inactive: [18] 102 % of control | [7] 100 % of control | [10] 103 % of control | [12] 103 % of control

Cc1ccc(S(=O)(=O)Oc2ccccc2C)cc1
inactive: [7] 97 % of control | [10] 103 % of control | [12] 103 % of control

O=P(C1CCCC1)(C1CCCC1)C1CCCC1
inactive: dose: 100.0 mg/kg/injection, schedule: Q01DX001 (ip), vehicle: saline with Tween-80 100 % of control | dose: 200.0 mg/kg/injection, schedule: Q01DX001 (ip), vehicle: saline with Tween-80 94 % of control | dose: 400.0 mg/kg/injection, schedule: Q01DX001 (ip), vehicle: saline with Tween-80 92 % of control

O=C(COc1ccccc1C(=O)O)Nc1ccccc1
inactive: dose: 25.0 mg/kg/injection, schedule: Q04DX002 (ip), vehicle: Klucel (hydroxypropylcellulose) (HPC) 114 % of control | dose: 50.0 mg/kg/injection, schedule: Q04DX002 (ip), vehicle: Klucel (hydroxypropylcellulose) (HPC) 92 % of control | dose: 100.0 mg/kg/injection, schedule: Q04DX002 (ip), vehicle: Klucel (hydroxypropylcellulose) (HPC) 96 % of control

From PubChem BioAssay AID248 (DTP/NCI, 2004)
